Experimental data: ChEMBL document CHEMBL1149262, “Monoamine transporter binding, locomotor activity, and drug discrimination properties of 3-(4-substituted-phenyl)tropane-2-carboxylic acid methyl ester isomers” (J Med Chem, 2004)
pIC50, pKi: −log10 of the molar value. Active and inactive are the calls of the source. The calls are words filed in the database; no cut-off is given here.

Tests used:
Mus musculus [1] = test: Locomotor activity in CD1 mouse assessed as stimulation at 0.3 mg/kg, ip after 1 hr relative to control; type: functional; conditions: route intraperitoneal
Mus musculus [2] = test: Locomotor activity in CD1 mouse assessed as stimulation at 0.3 mg/kg, ip after 2 hrs relative to control; type: functional; conditions: route intraperitoneal
Mus musculus [3] = test: Locomotor activity in CD1 mouse assessed as stimulation at 0.3 mg/kg, ip after 3 hrs relative to control; type: functional; conditions: route intraperitoneal
Mus musculus [4] = test: Locomotor activity in CD1 mouse assessed as stimulation at 0.3 mg/kg, ip after 4 hrs relative to control; type: functional; conditions: route intraperitoneal
Mus musculus [5] = test: Locomotor activity in CD1 mouse assessed as stimulation at 1 mg/kg, ip after 1 hr relative to control; type: functional; conditions: route intraperitoneal
Mus musculus [6] = test: Locomotor activity in CD1 mouse assessed as stimulation at 1 mg/kg, ip after 2 hrs relative to control; type: functional; conditions: route intraperitoneal
Mus musculus [7] = test: Locomotor activity in CD1 mouse assessed as stimulation at 1 mg/kg, ip after 3 hrs relative to control; type: functional; conditions: route intraperitoneal
Mus musculus [8] = test: Locomotor activity in CD1 mouse assessed as stimulation at 1 mg/kg, ip after 4 hrs relative to control; type: functional; conditions: route intraperitoneal
Mus musculus [9] = test: Locomotor activity in CD1 mouse assessed as stimulation at 0.1 mg/kg, ip after 1 hr relative to control; type: functional; conditions: route intraperitoneal
Mus musculus [10] = test: Locomotor activity in CD1 mouse assessed as stimulation at 0.1 mg/kg, ip after 2 hrs relative to control; type: functional; conditions: route intraperitoneal
Mus musculus [11] = test: Locomotor activity in CD1 mouse assessed as stimulation at 0.1 mg/kg, ip after 3 hrs relative to control; type: functional; conditions: route intraperitoneal
Mus musculus [12] = test: Locomotor activity in CD1 mouse assessed as stimulation at 0.1 mg/kg, ip after 4 hrs relative to control; type: functional; conditions: route intraperitoneal
Rattus norvegicus [13] = test: Cocaine discrimination in ip dosed CD Albino rat; type: functional
Rattus norvegicus [14] = test: Drug discrimination effect in CD Albino rat assessed as percent of rat choosing cocaine lever at 0.17 mg/kg, ip; type: functional; conditions: route intraperitoneal
Rattus norvegicus [15] = test: Drug discrimination effect in CD Albino rat assessed as percent of rat choosing cocaine lever at 0.3 mg/kg, ip; type: functional; conditions: route intraperitoneal
Mus musculus [16] = test: Activity in CD1 mouse assessed as hyperactivity at 1 mg/kg, ip after 4 hrs; type: functional, organism-based; design: dose 1 mg/kg
Mus musculus [17] = test: Activity in CD1 mouse assessed as stereotypy at 1 mg/kg, ip after 4 hrs; type: functional, organism-based; design: dose 1 mg/kg
Mus musculus [18] = test: Activity in CD1 mouse assessed as circling at 1 mg/kg, ip after 4 hrs; type: functional, organism-based; design: dose 1 mg/kg
Mus musculus [19] = test: Activity in CD1 mouse assessed as stereotypy at 10 mg/kg, ip after 4 hrs; type: functional, organism-based; design: dose 10 mg/kg
Mus musculus [20] = test: Activity in CD1 mouse assessed as stereotypy at 100 mg/kg, ip after 4 hrs; type: functional, organism-based; design: dose 100 mg/kg
Mus musculus [21] = test: Activity in CD1 mouse assessed as straub tail at 100 mg/kg, ip after 4 hrs; type: functional, organism-based; design: dose 100 mg/kg
Mus musculus [22] = test: Activity in CD1 mouse assessed as hind limb splay at 100 mg/kg, ip after 4 hrs; type: functional, organism-based; design: dose 100 mg/kg; conditions: Hindlimb
[23] = biological target: Sodium-dependent dopamine transporter (Homo sapiens, UniProt Q01959); test: Displacement of [3H]WIN-35428 from DAT
Sequence of Sodium-dependent dopamine transporter (Q01959 whole entry): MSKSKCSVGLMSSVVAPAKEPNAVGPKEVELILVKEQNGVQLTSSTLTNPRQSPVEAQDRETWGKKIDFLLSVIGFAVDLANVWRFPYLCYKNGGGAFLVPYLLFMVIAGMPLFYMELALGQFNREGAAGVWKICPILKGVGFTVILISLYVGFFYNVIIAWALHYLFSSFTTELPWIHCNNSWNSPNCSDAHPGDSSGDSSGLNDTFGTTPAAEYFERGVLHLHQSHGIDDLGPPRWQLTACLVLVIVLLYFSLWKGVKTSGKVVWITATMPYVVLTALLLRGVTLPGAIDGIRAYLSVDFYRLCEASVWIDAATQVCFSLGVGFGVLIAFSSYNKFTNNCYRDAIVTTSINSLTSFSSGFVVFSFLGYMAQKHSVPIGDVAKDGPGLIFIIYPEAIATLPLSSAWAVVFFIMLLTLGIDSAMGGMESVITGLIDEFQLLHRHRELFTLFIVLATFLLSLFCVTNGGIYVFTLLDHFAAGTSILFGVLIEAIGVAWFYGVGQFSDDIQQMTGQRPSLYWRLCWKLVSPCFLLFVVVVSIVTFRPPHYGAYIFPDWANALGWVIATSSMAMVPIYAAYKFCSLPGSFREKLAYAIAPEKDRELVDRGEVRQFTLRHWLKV

Mus musculus [24] = test: Locomotor activity in ip dosed CD1 mouse in peak hour; type: functional
Mus musculus [25] = test: Locomotor activity in CD1 mouse assessed as stimulation at 3 mg/kg, ip after 1 hr relative to control; type: functional; conditions: route intraperitoneal
Mus musculus [26] = test: Locomotor activity in CD1 mouse assessed as stimulation at 3 mg/kg, ip after 2 hrs relative to control; type: functional; conditions: route intraperitoneal
Mus musculus [27] = test: Locomotor activity in CD1 mouse assessed as stimulation at 3 mg/kg, ip after 3 hrs relative to control; type: functional; conditions: route intraperitoneal
Mus musculus [28] = test: Locomotor activity in CD1 mouse assessed as stimulation at 3 mg/kg, ip after 4 hrs relative to control; type: functional; conditions: route intraperitoneal
Rattus norvegicus [29] = test: Drug discrimination effect in CD Albino rat assessed as percent of rat choosing cocaine lever at 0.1 mg/kg, ip; type: functional; conditions: route intraperitoneal
Rattus norvegicus [30] = test: Drug discrimination effect in CD Albino rat assessed as percent of rat choosing cocaine lever at 1 mg/kg, ip; type: functional; conditions: route intraperitoneal
Rattus norvegicus [31] = test: Drug discrimination effect in CD Albino rat assessed as percent of rat choosing cocaine lever at 3 mg/kg, ip; type: functional; conditions: route intraperitoneal
Rattus norvegicus [32] = test: Drug discrimination effect in CD Albino rat assessed as percent of rat choosing cocaine lever at 5.6 mg/kg, ip; type: functional; conditions: route intraperitoneal
Rattus norvegicus [33] = test: Drug discrimination effect in CD Albino rat assessed as percent of rat choosing cocaine lever at 10 mg/kg, ip; type: functional; conditions: route intraperitoneal
Mus musculus [34] = test: Activity in CD1 mouse assessed as circling at 10 mg/kg, ip after 4 hrs; type: functional, organism-based; design: dose 10 mg/kg
Mus musculus [35] = test: Activity in CD1 mouse assessed as slight or intermittent hyperactivity at 10 mg/kg, ip after 4 hrs; type: functional, organism-based; design: dose 10 mg/kg
Mus musculus [36] = test: Activity in CD1 mouse assessed as hyperactivity at 100 mg/kg, ip after 4 hrs; type: functional, organism-based; design: dose 100 mg/kg
Mus musculus [37] = test: Activity in CD1 mouse assessed as circling at 100 mg/kg, ip after 4 hrs; type: functional, organism-based; design: dose 100 mg/kg
[38] = biological target: Sodium-dependent noradrenaline transporter (Homo sapiens, UniProt P23975); test: Displacement of [3H]nisoxetine from NET
Sequence of Sodium-dependent noradrenaline transporter (P23975 whole entry): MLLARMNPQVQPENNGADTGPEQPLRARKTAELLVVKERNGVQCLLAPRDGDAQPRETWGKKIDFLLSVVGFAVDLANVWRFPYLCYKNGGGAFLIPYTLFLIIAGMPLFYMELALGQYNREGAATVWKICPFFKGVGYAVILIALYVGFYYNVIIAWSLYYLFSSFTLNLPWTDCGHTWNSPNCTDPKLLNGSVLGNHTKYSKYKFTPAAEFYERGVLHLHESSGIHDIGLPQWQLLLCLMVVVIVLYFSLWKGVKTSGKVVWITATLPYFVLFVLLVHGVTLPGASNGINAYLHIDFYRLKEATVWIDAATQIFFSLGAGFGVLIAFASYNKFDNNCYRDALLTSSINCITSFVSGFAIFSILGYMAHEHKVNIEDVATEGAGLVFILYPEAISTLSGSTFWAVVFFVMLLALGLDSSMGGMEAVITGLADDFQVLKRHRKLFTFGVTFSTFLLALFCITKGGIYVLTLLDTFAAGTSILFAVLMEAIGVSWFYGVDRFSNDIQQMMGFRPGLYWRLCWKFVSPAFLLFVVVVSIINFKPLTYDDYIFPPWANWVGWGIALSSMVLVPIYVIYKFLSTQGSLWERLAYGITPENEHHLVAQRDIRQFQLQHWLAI

Mus musculus [39] = test: Locomotor activity in CD1 mouse assessed as stimulation at 10 mg/kg, ip after 1 hr relative to control; type: functional; conditions: route intraperitoneal
Mus musculus [40] = test: Locomotor activity in CD1 mouse assessed as stimulation at 10 mg/kg, ip after 2 hrs relative to control; type: functional; conditions: route intraperitoneal
Mus musculus [41] = test: Locomotor activity in CD1 mouse assessed as stimulation at 10 mg/kg, ip after 3 hrs relative to control; type: functional; conditions: route intraperitoneal
Mus musculus [42] = test: Locomotor activity in CD1 mouse assessed as stimulation at 10 mg/kg, ip after 4 hrs relative to control; type: functional; conditions: route intraperitoneal
Mus musculus [43] = test: Locomotor activity in CD1 mouse assessed as stimulation at 30 mg/kg, ip after 1 hr relative to control; type: functional; conditions: route intraperitoneal
Mus musculus [44] = test: Locomotor activity in CD1 mouse assessed as stimulation at 30 mg/kg, ip after 2 hrs relative to control; type: functional; conditions: route intraperitoneal
Mus musculus [45] = test: Locomotor activity in CD1 mouse assessed as stimulation at 30 mg/kg, ip after 3 hrs relative to control; type: functional; conditions: route intraperitoneal
Mus musculus [46] = test: Locomotor activity in CD1 mouse assessed as stimulation at 30 mg/kg, ip after 4 hrs relative to control; type: functional; conditions: route intraperitoneal
Mus musculus [47] = test: Locomotor activity in CD1 mouse assessed as stimulation at 100 mg/kg, ip after 1 hr relative to control; type: functional; conditions: route intraperitoneal
Mus musculus [48] = test: Locomotor activity in CD1 mouse assessed as stimulation at 100 mg/kg, ip after 2 hrs relative to control; type: functional; conditions: route intraperitoneal
Mus musculus [49] = test: Locomotor activity in CD1 mouse assessed as stimulation at 100 mg/kg, ip after 3 hrs relative to control; type: functional; conditions: route intraperitoneal
Mus musculus [50] = test: Locomotor activity in CD1 mouse assessed as stimulation at 100 mg/kg, ip after 4 hrs relative to control; type: functional; conditions: route intraperitoneal
[51] = biological target: Sodium-dependent serotonin transporter (Homo sapiens, UniProt P31645)
Sequence of Sodium-dependent serotonin transporter (P31645 whole entry): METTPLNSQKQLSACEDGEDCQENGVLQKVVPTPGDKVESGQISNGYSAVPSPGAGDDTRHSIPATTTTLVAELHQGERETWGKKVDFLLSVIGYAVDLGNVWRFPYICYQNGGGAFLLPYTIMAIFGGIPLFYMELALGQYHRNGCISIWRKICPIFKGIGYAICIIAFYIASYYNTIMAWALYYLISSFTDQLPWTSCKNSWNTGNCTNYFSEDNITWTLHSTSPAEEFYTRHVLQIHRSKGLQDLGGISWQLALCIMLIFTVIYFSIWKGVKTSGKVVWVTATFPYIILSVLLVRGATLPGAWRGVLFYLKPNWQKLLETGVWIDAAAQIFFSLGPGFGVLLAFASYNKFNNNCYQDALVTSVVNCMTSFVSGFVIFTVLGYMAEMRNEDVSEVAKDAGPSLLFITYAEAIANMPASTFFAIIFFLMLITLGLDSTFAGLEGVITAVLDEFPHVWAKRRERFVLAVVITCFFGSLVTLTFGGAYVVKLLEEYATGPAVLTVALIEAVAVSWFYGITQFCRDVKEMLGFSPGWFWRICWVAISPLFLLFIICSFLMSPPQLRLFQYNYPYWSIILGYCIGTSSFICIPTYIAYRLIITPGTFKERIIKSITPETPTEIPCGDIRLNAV
Description: Displacement of [3H]paroxetine from 5HTT

SMILES	ED50 (Rattus norvegicus [13])	Activity (Mus musculus [19])	Activity (Mus musculus [20])	pIC50 [23]	ED50 (Mus musculus [24])	Activity (Mus musculus [25])	Activity (Mus musculus [26])	Activity (Mus musculus [27])	Activity (Mus musculus [28])	Activity (Rattus norvegicus [31])	Activity (Rattus norvegicus [32])	Activity (Rattus norvegicus [33])	Activity (Mus musculus [35])	Activity (Mus musculus [36])	Activity (Mus musculus [37])	pIC50 [38]	pKi [38]	Activity (Mus musculus [39])	Activity (Mus musculus [40])	Activity (Mus musculus [41])	other results
COC(=O)C1C2CC[C@H](C[C@@H]1c1ccc(Cl)cc1)N2C (stereo not given in full)	0.13 mg/kg	Active	Active	8.96	0.2 mg/kg	416%	-36%	589%	1643%												Activity (Mus musculus [1]): 462%; Activity (Mus musculus [2]): 1426%; Activity (Mus musculus [3]): 1201%; Activity (Mus musculus [4]): 235%; Activity (Mus musculus [5]): 645%; Activity (Mus musculus [6]): 958%; Activity (Mus musculus [7]): 1892%; Activity (Mus musculus [8]): 1507%; Activity (Mus musculus [9]): -26%; Activity (Mus musculus [10]): 53%; Activity (Mus musculus [11]): 91%; Activity (Mus musculus [12]): 17%; Activity (Rattus norvegicus [14]): 44%; Activity (Rattus norvegicus [15]): 100%; Activity (Mus musculus [16]): Active; Activity (Mus musculus [17]): Active; Activity (Mus musculus [18]): Active; Activity (Mus musculus [21]): Active; Activity (Mus musculus [22]): Active; Activity (Rattus norvegicus [29]): 50%
COC(=O)[C@@H]1C2CCC(C[C@H]1c1ccc(F)cc1)N2C (stereo not given in full)	5.66 mg/kg	Active	Active		15.6 mg/kg	26%	-23%	16%	41%	29%	38%	86%	Active	Active	Active	5.92	6.13	137%	105%	146%	Activity (Rattus norvegicus [30]): 0%; Activity (Mus musculus [34]): Active; Activity (Mus musculus [42]): 58%; Activity (Mus musculus [43]): 362%; Activity (Mus musculus [44]): 187%; Activity (Mus musculus [45]): 215%; Activity (Mus musculus [46]): 66%; Activity (Mus musculus [47]): 575%; Activity (Mus musculus [48]): 340%; Activity (Mus musculus [49]): 194%; Activity (Mus musculus [50]): 73%; pIC50 [51]: 5.30; pKi [51]: 6.34
COC(=O)[C@@H]1C2CCC(C[C@H]1c1ccccc1)N2C (stereo not given in full)	3.19 mg/kg	Active	Active	7.00	21.8 mg/kg	-30%	-39%	-35%	12%	13%	100%	100%	Active	Active	Active	6.27	6.57	43%	6%	-13%	Activity (Mus musculus [42]): 6%; Activity (Mus musculus [43]): 161%; Activity (Mus musculus [44]): 17%; Activity (Mus musculus [45]): 47%; Activity (Mus musculus [46]): 97%; Activity (Mus musculus [47]): 338%; Activity (Mus musculus [48]): 191%; Activity (Mus musculus [49]): 234%; Activity (Mus musculus [50]): 390%
